Molecules are shown by their SMILES. Where two headings read alike, the source gives them in different places.

A short description of series [1]: Preliminary clinical trial of memantine in obese, otherwise healthy patients. The series is classed as in vivo, human. As to the method: The patients experienced an initial loss of body weight of 1 to 3 kg within a 7 day period. Further weight loss is observed during the course of administration over a longer period of time, see appended FIG. 6.
FIG. 6. Percent body weight decline in seven obese and one overweight subjects (6 females, 2 males) during a two month therapeutical trial with memantine (Axura®, Merz Pharmaceuticals GmbH), 5-10 mg in the morning, and 5-20 mg late in the afternoon (Patient […] initial body weight 126.6 kg, […] initial body weight 90.6 kg, Re initial body weight 93.5 kg, Br initial body weight 122.3 kg, Ku initial body weight 111.0 kg, Ho initial body weight 77.6 kg, Sk (male) initial body weight 148.6 kg, Le (male) initial body weight 109.6 kg).
The following preliminary and limited clinical trials have been carried out in the private practice of the inventor. The trials with memantine are carried out since Feb. 2, 2005, in eight obese, but otherwise healthy patients, 6 females, and 2 males (Table 1; FIG. 6).

For series [2] the following is noted: doses 100 to 1400 mg; seven of 13 female patients; cited from earlier work.
For series [3] the following is noted: cited from earlier work.
Series [4] can be described thus: Oral (maternal and offspring feeding) or neonatal s.c. administration of monosodium glutamate to Wistar rats. The series is classed as in vivo. As to the method:
The effects of oral administration of GLU were investigated in 32 pregnant rats and their offspring up to day 90 of life, in the animal facilities of the Department of Physiology, Medical School, Universidad Complutense, Madrid, Spain. The study was conducted in accordance with the principles and procedures outlined in the NIH Guide for the Care and Use of Laboratory Animals. Pregnant Wistar rats were kept under controlled conditions of light (12 h light/12 h darkness) and temperature (21+/−2C.°), and were fed with tap water and rat chow (Panlab, Barcelona, Spain) ad libitum.
At day 14 of pregnancy, the animals were divided into four groups (n=8), and either received no extra monosodium glutamate (MSG) (control, group 1), or 2.5 g MSG (group 2) or 5 g MSG per day (group 3), up to the end of the weaning period. 2.5 g, respectively 5 g MSG accounted for some 10%, respectively 20% of dry weight of the average daily food ration. After weaning and gender separation, MSG feeding was continued in the offspring at the same concentrations. A fourth group of animals received no MSG, but their offspring was injected with MSG 4 mg/g body weight s.c., at neonatal age as described earlier (Hermanussen, (1996) loc. cit.). Due to the existence of two gender groups a total of 8 experimental groups were obtained with n=6-9 for each group of females and males. All litter was weighed at weekly intervals, and the amount of food consumed was registered daily. Offspring was sacrificed half at day 30 and the rest at day 90 of life.
Half of the animals were killed by decapitation at day 30 and the other half at the end of the observation period at day 90. Anterior pituitaries were removed, and trunk blood was collected. Serum samples and anterior pituitaries after being weighted, were kept at −80° C., for hormonal determinations by specific radioimmunoassays (RIA). Pituitary homogenates were obtained by manual glass homogenizers, and processed in saline after thawing in the moment of the measurement.
Plasma GH levels and pituitary GH content were determined by RIA as previously described.^21 Pituitary homogenates were diluted 1:5000 for determination. Reagents were kindly provided by the National Institute of Diabetes, Digestive and Kidney Diseases (NIDDK). The standard used was rat GH RP2. The sensitivity of the curve was 2 ng/ml and the intraassay coefficient of variation was 5.7%. Plasma IGF I concentrations were measured using a commercially available rat RIA kit (DSL-2900, Diagnostic Systems Laboratories, INC). The sensitivity of the assay was 20 ng/ml, and the intraassay coefficients of variation for mean serum concentrations of 323, 772 and 1604 ng/ml were 5.9%, 6.1% and 3.8%, respectively.
Values are expressed as mean +/−SEM. […] To determine differences in final weight or hormonal levels a two-way ANOVA test was performed. Differences among groups were subjected to a post-hoc comparison by using Tukey HSD for unequal N test. Statistics were executed using Statistica program. The significance level was determined to be p<0.05.

The mark [5] stands for this setting: 5 g MSG per day, day 90 of life, p<0.01.

Regarding `CC12CC3CC(C)(C1)CC(N)(C3)C2` [memantine], in series [1] (already at the second day of treatment), the “late afternoon or evening binge-eating disorders (patient report)” value is “complete disappeared”. Also, in series [1] (initial treatment period), the side effects entry is “Apart from short moments of mild dizziness at the first day, and mild constipation, there were no side effects”. The “appetite (patient report)” value in series [1] (obese patients on memantine) is “significant decrease in appetite”. For the same compound, the “Weight (kg) after treatment” value in series [1] (patient eight, 93.5 kg, BMI 32.6 before treatment, 56 days of treatment) is given as 91.3 kg; in series [1] (patient five, 90.6 kg, BMI 33.3 before treatment, 49 days of treatment), 86.6 kg; in series [1] (patient four, 109.6 kg, BMI 31.7 before treatment, 54 days of treatment) it was 99.4 kg; in series [1] (patient one, 111.0 kg, BMI 38.6 before treatment, 56 days of treatment), 104.4 kg; in series [1] (patient seven, 77.6 kg, BMI 27.5 before treatment, 77 days of treatment), 71.4 kg; in series [1] (patient six, 126.6 kg, BMI 43.3 before treatment, 67 days of treatment), 111.3 kg. The “Weight (kg) after treatment” value in series [1] (patient three, 122.3 kg, BMI 42.8 before treatment, 40 days of treatment) turned out to be 117.5 kg; in series [1] (patient two, 148.6 kg, BMI 38.3 before treatment, 25 days of treatment), 144.8 kg.
Turning to `CC1(C)O[C@@H]2[C@@H](CO[C@@]3(COS(N)(=O)=O)OC(C)(C)O[C@@H]23)O1` [topiramate], the weight loss in series [2] is given as > 5 kg; in series [3] (64 mg/d, 6 months) it was 5.0%; in series [3] (96 mg, 6 months) it was 4.8%; in series [3] (192 mg, 6 months), 6.3%; in series [3] (384 mg, intention-to-treat population, 6 months, placebo 2.6%), 6.3%; in series [3] (384-mg dose, completers) it was “up to 8.5%”.
Regarding `N[C@@H](CCC(=O)O)C(=O)[O-].[Na+]` [MSG, monosodium glutamate], the food uptake entry in series [4] (setting [5]) is reported as “almost twofold”. Also, the water uptake result in series [4] (setting [5]) is reported as “threefold”. Besides, the “weight increments during weaning” value in series [4] (MSG feeding to the mothers maintained during weaning, p<0.01) was “subnormal”. Besides, the appetite entry was “did not show significantly increased appetite” in series [4] (MSG injected animals, compared to controls); “marked voracity” in series [4] (medium MSG diet (2.5 g MSG per day) and particularly high MSG diet (5 g MSG per day)). The IGF-1 serum levels result in series [4] (compared with the GH results, day 30 and day 90 of life) is “Almost identical results”. For the same compound, the “serum GH levels” value was “as low or even lower than those of MSG injected animals” in series [4] (high MSG diet (5 g MSG per day), day 30 and day 90 of life, p<0.05); “low” in series [4] (medium MSG diet (2.5 g MSG per day), day 30 of life, p<0.01). Further, the “birth weight of the offspring” value in series [4] (maternal feeding with 2.5 g MSG per day, compared to controls) was “no birth weight modification”; in series [4] (maternal feeding with 5 g MSG per day, p<0.01), “severe birth weight reduction”. The “GH plasma levels of the offspring” value in series [4] (neonatally injected with MSG 4 mg/g body weight s.c., day 30 and day 90 of life, p<0.05) is listed as “low”.
